According to patent US20160354411A1, “OLIVAMINE-INDUCED IMPROVEMENT IN ENDOTHELIAL CELLS VIABILITY AND FUNCTION” (priority 2015, published 2016):

How the values were obtained:
[1] = test system: human microvascular endothelial cells; experiment: in vitro model of wound healing, time for 50% wound to heal; type: cell-based
Source text: The time for wounds to heal by 50% under the various treatment conditions was quantified.

[2] = test system: human umbilical vein endothelial cells (HUVEC); experiment: HUVEC cell migration / wound gap closure with or without 30 mM glucose pre-treatment; type: cell-based; conditions: for Time for 50% wound to heal: 24 hours incubation before wounding; for Healing Improvement (%): compared to untreated cells
Procedure: Additional wound studies were conducted using umbilical cord stem cells in addition to the use of hydroxytyrosol compositions and commercially-available OLIVAMINE® (compositions of hydroxytyrosol and oleuropein) compositions (20 μM hydroxytyrosol, 80 μM oleuropein, 2 mM N-acetylcysteine, 50 μM L-proline, 2 mM glycine and 100 μM taurine). These were evaluated with human umbilical vein endothelial cells (HUVEC) to assess impact on cell migration and wound healing.
HUVEC cells. Human umbilical vein endothelial cells are derived from the endothelium of veins from the umbilical cord (HUVEC primary cells purchased from Lonza). HUVECs have been widely used as a model system for the study of the regulation of endothelial cell function and the role of the endothelium in response of the blood vessel wall to stretch, shear forces and the development of atherosclerotic plaques and angiogenesis. For the following study, HUVECs are a primary endothelial cell line as a model system for the function and pathology of endothelial cells. We investigated improvement in cell proliferation and migration following treatment with OLIVAMINE® (compositions of hydroxytyrosol and oleuropein) composition.
In this study, HUVEC cells were pre-treated with or without 30 mM glucose for 3 days (72 hours). The cells were then equilibrated for a day (24 hours), and incubated with 50 μM hydroxytyrosol or OLIVAMINE® (compositions of hydroxytyrosol and oleuropein) formulation (20 μM hydroxytyrosol, 80 μM oleuropein, 2 mM N-acetylcysteine, 50 μM L-proline, 2 mM glycine and 100 μM taurine) for 24 hours before wounding.
Images were taken at intervals and the wound gap was quantified over time using IMAGE® analysis software. […] The distances measured are depicted in the Figures by the horizontal solid lines indicating the distance between the gaps of the wound. 100 measurements were taken per image and a mean gap distance was determined. As shown in FIGS. 7-8 the initial wound and 24 hour measurement are shown by the images, under both control (FIG. 7A) and high glucose (FIG. 8A). In addition the reduction in percentage of open wound is further shown graphically for the control (FIG. 7B) and high glucose (FIG. 8B) conditions. The time for 50% of the wound to heal was quantified as well as the percentage of improvement compared to untreated cells.

HMEC-1 cells = experiment: crystal violet cell viability assay; type: cell-based, human; conditions: 24 hours; HT 0-200 μM, OL 0-800 μM, Formulation 1 0-4×
Procedure: A crystal violet cell viability assay was performed to determine the cytotoxic effects of OLIVAMINE® (compositions of hydroxytyrosol and oleuropein) composition on HMEC-1 cells. Briefly, cells were seeded on a 24-well plate and treated for 24 h dose-titration concentrations of HT (0-200 μM), OL (0-800 μM), OLIVAMINE® (compositions of hydroxytyrosol and oleuropein) composition (McCord formulation 1, dilution factor=4×, Table 8). Following treatment, cells were washed twice with 0.9% saline and fixed with […] of 4% neutral formalin for 15-30 min. Cells were then stained with […] of 0.01% (w/v) crystal violet for 30 min, washed with dH2O and left to dry under a fume hood overnight. Cells were then lysed with […] of lysis buffer for 15 min on a rotating platform and the absorbance of each well was measured at the 560 nm wavelength using a microplate spectrophotometer.
To determine whether olive phenols influence cell proliferation, a crystal violet cell viability analysis was conducted. The relative cell viability of HMEC-1 cells was investigated. Cells were incubated with varying concentrations of HT (0-200 μM), OL (0-800 μM) and Formulation 1 (Table 8, 0-4×) 24 hours.

proliferative cells = experiment: induction or maintenance of a quiescent cell state; type: cell-based; conditions: evidence obtained to-date
Procedure: More specifically, when present at a concentration above a threshold level, hydroxytyrosol can induce proliferative cells into a quiescent state and help maintain cells in a pre-existing quiescent state. Based upon evidence obtained to-date, the threshold concentration is about 10 μM hydroxytyrosol.

[3] = Table 9, single ingredients, Present Art and Present Art without one ingredient

Row | SMILES | Time for 50% wound to heal [1, 3] [h] | Time for 50% wound to heal ([1]; Table 1) [h] | effect on cell proliferation / viability (HMEC-1 cells) | further results
1 | NCCS(=O)(=O)O [L-Taurine] | 22.5 |  |  | 
2 | O=C(O)[C@@H]1CCCN1 [L-proline] | 23.24 |  |  | 
3 | NCC(=O)O [Glycine] | 20.73 |  |  | 
4 | OCCc1ccc(O)c(O)c1 [Hydroxytyrosol] | 19.25 | 19.25 | no significantly effects on cell proliferation | less effective than the present art combination ([1]; hydroxytyrosol alone): 30%; Time for 50% wound to heal ([2]; High Glucose (30 mM, 72 hours)): 15.2 h; Healing Improvement (%) ([2]; High Glucose): 30%; Time for 50% wound to heal ([2]; no glucose pre-treatment): 19.7 h; Healing Improvement (%) ([2]; no glucose pre-treatment): 10%; threshold concentration for inducing or maintaining quiescence (proliferative cells): about 10 μM
5 | C/C=C1/[C@H](O[C@@H]2O[C@H](CO)[C@@H](O)[C@H](O)[C@H]2O)OC=C(C(=O)OC)[C@H]1CC(=O)OCCc1ccc(O)c(O)c1 [Oleuropein] | 25.62 | 25.62 | no significantly effects on cell proliferation | 
6 | CC(=O)N[C@@H](CS)C(=O)O [N-acetylcysteine, N-acetyl-L-cysteine, reference compound] | 28.87 | 28.87 |  | effect on time and extent of wound healing (in words) ([1]; compared to untreated or to single ingredients, absence and presence of glucose): increased the time to 50% healing compared to untreated
